Experimental data reported in US4574126A, “Pyridine derivatives histamine H2 -antagonists” (Smith Kline & French Laboratories Limited, priority 1982, dated 1986).

Tests used:
[1] = molecular target: T1, histamine H2 -receptors (Cavia porcellus, UniProt P47747); assay: guinea pig atrium test: inhibition of histamine-induced tachycardia in isolated right atrium; format: biochemical; details: histamine-induced rate increase, 60 min contact, read-out: pA2 (converted)
T1 construct: a spontaneously beating isolated portion of the guinea pig right atrium; from tissue; host or cells: isolated guinea pig right atrium
T1 sequence (P47747 whole entry): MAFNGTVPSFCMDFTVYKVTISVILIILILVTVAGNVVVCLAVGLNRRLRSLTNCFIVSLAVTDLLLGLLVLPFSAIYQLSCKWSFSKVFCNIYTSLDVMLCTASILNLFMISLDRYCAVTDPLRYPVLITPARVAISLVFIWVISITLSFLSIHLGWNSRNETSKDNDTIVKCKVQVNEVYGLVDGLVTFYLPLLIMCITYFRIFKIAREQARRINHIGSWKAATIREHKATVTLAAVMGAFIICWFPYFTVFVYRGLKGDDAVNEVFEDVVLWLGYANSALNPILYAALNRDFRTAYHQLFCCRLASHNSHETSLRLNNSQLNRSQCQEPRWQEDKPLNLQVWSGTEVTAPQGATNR
Method: In the guinea pig atrium test a spontaneously beating isolated portion of the guinea pig right atrium is secured under tension (300 mg) between an anchorage and a transducer in a 15 ml tissue bath and immersed in McEwens solution with constant aeration at a temperature of 37° C. The output from the transducer is amplified. Output is in turn fed to a flat bed recorder. Measured amounts of histamine are added to the tissue bath so that the histamine concentration increases step-wise until the rate of beating reaches a maximum. The tissue bath is washed out and filled with fresh McEwens solution containing compound under test. The solution is left in contact with the tissue for 60 min. and measured amounts of histamine are added again until a maximum rate is recorded. The assay is repeated with increasing concentrations of test compound and the dose of histamine giving 50% of maximum rate is noted. A dose ratio (DR) was calculated by comparing the concentrations of histamine required to produce 50% maximum response in the absence and in the presence of the antagonist. A plot of Log DR-1 against LOG D (the concentration of compound under test) is made and the point of intersection with the Log (DR-1) ordinate is taken as the measure of the activity (pA2 value).

[2] = molecular target: T2, histamine H2 -receptors (Rattus norvegicus, UniProt P25102); assay: lumen-perfused rat test: inhibition of histamine-stimulated secretion of gastric acid; format: in vivo; details: iv, lumen-perfused stomachs of rats anaesthetised with urethane, read-out: ED50 (for inhibiting sub-maximal acid secretion by 50%)
T2 construct: histamine-stimulated secretion of gastric acid from the lumen-perfused stomachs of rats anaesthetised with urethane; from tissue; host or cells: lumen-perfused stomach of urethane-anaesthetised female Sprague-Dawley rats (in vivo)
T2 sequence (P25102 whole entry, the tested form may be a part): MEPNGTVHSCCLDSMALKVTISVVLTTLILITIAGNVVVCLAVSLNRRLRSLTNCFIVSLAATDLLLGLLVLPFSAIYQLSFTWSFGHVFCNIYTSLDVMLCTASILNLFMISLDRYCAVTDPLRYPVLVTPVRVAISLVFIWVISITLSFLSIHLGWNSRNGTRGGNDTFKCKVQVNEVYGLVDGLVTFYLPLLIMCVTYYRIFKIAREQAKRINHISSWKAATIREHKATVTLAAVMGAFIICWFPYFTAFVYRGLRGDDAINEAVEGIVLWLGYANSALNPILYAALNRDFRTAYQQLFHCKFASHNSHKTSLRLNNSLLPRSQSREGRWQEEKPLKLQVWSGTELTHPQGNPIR
Excerpt: These are actions of histamine which, according to Ash and Schild, Brit. J. Pharmac. Chemother. 27 247 (1966), are not mediated by histamine H1 -receptors.
Inhibition of histamine-stimulated secretion of gastric acid can be measured by using a lumen-perfused stomachs of rats anaesthetised with urethane using the following modification of the method of Ghosh and Schild, Brit. J. Pharmac. Chemother. 13 54 (1958):
Female Sprague-Dawley rats (160-200 g) are starved overnight and anaesthetised with urethane given intraperitoneally in one dose (200 mg). The trachea and jugular veins are both cannulated and a mid-line incision is made in the abdomen exposing the stomach which is cleared from connective tissue. […] The effluent is passed over a micro-flow pH electrode and recorded by a pH meter fed to an anti-log unit and flat-bed recorder. The basal output of acid secretion from the stomach is monitored by measurement of the pH of the perfusion effluent. A sub-maximal dose of histamine is continuously infused into the jugular vein and produces a stable plateau of acid secretion and the pH of the perfusion effluent is determined when this condition is obtained. […] The difference in acid secretion between basal output and the histamine stimulated plateau level and the reduction of acid secretion caused by the test compound are calculated from the difference in pH of the perfusion effluent. […]

| Kb [1] [µM] | ED50 [2] [µmol/kg] | Compound |
| --- | --- | --- |
| < 0.1 | < 0.1 | CNC(=C[N+](=O)[O-])NCCSCc1cc(CN(C)C)ccn1 [Example 2, 1-nitro-2-methylamino-2-[2-(4-dimethylaminomethyl-2-pyridylmethylthio)ethylamino]-ethylene] |
| < 0.1 | < 0.1 | CNC(=NCCSCc1cc(CN(C)C)ccn1)NC#N [Example 1, N-cyano-N'-methyl-N"-[2-(4-dimethylaminomethyl-2-pyridylmethylthio)ethyl]-guanidine] |
